Results from patent EP3046573B1, “AMYLIN ANALOGUES” (Zealand Pharma A/S, priority 2013, dated 2015).
Where two headings read alike, the source gives them in different places. Numbered stars: 1 amine (or outer) side, 2 acyl side, 3 side chain; on linkers, the order of the positions; unused ones are H or OH. Bridge positions count the residues as written; N and C are the ends. Square brackets hold non-standard residues; d marks the D form. Peptide text beside a SMILES is read from it. * marks the point of attachment. Pro(trans-4-Ph) = O=C(O)[C@@H]1C[C@@H](c2ccccc2)CN1; C20 diacid = O=C(O)CCCCCCCCCCCCCCCCCCC(=O)*; Pro(4R-NH2) = N[C@H]1CN[C@H](C(=O)O)C1; γGlu = O=C(O)[C@H](CCC(=O)[*:2])N[*:1]; NMeI = CC[C@H](C)[C@H](NC)C(=O)O; Pip = O=C(O)[C@@H]1CCCCN1; Aze = O=C(O)[C@@H]1CCN1; Sar = CNCC(=O)O

Legend:
[1] = molecular target: T1, human calcitonin receptor (hCTR2) (Homo sapiens, UniProt P30988); experiment: hCTR2 assay: induction of cAMP (AlphaScreen cAMP Assay kit) in COS7 cells expressing hCTR2; format: cell-based
T1 construct: expressed in transfected cells
T1 sequence (P30988 25-474): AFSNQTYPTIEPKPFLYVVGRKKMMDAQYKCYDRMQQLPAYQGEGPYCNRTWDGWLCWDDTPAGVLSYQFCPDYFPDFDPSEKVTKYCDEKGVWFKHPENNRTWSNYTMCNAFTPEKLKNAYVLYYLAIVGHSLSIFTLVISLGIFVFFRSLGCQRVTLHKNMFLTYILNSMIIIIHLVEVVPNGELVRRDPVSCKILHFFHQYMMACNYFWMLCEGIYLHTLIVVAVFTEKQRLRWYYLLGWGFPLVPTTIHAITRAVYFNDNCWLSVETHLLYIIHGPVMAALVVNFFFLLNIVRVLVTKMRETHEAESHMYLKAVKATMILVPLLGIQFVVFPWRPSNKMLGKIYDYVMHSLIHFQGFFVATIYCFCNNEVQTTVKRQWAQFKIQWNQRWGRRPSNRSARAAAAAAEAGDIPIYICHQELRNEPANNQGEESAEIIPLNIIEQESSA
In short: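 Cells were seeded one day ahead, washed, then exposed to rising peptide concentrations for 15 min at 37° C in the presence of 100 µM IBMX. After lysis for 10 min at room temperature, cAMP was quantified by AlphaScreen and EC50 values derived by 4PL fitting.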

[2] = molecular target: T2, human amylin receptor 3 (hAMYR3) consisting of hCTR2 co-expressed with human Receptor Activity Modifying Protein 3 (hRAMP3) (Homo sapiens, UniProt O60896+P30988); experiment: hAMYR3 assay: induction of cAMP (AlphaScreen cAMP Assay kit) in COS7 cells expressing hAMYR3; format: cell-based
T2 construct: expressed in transfected cells
T2 sequence (P30988 25-474): T1 sequence (P30988 25-474)
T2 sequence (O60896 24-148 partner): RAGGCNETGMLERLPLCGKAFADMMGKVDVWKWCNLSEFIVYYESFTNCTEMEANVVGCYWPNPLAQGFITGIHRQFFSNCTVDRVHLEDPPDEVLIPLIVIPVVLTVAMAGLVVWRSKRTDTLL
In short: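 cAMP accumulation read by AlphaScreen in lysates of RAMP-naive COS7 cells stably transfected with hCTR2 plus hRAMP3. Cells exposed to peptide dilutions for 15 min, 37° C, with 100 µM IBMX; 4PL fitting gave EC50 and efficacy relative to pramlintide.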

[3] = Solubility assessment (turbidity absorbance at 325 nm); format: physicochemical; conditions: stock 2 mg/ml diluted 1:1, ambient temperature (typically 25°C), n=1; for Solubility, Acetate buffer pH 4: 100 mM acetate buffer pH 4.0; for Solubility, Acetate buffer pH 5: 100 mM acetate buffer pH 5.0; for Solubility, Histidine buffer pH 6: 100 mM histidine buffer pH 6.0; for Solubility, Histidine buffer pH 7: 100 mM histidine buffer pH 7.0; for Solubility, Phosphate buffer pH 6: 100 mM phosphate buffer pH 6.0; for Solubility, Phosphate buffer pH 7: 100 mM phosphate buffer pH 7.0; for Solubility, Phosphate buffer pH 7.5: 100 mM phosphate buffer pH7.5
In short: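 Turbidity read as absorbance at 325 nm (also 280 nm), single samples at ambient temperature (typically 25°C); ≤ 0.02 units counts as ≥ 1 mg/ml soluble. Samples made by 1:1 dilution of a 2 mg/ml acidic stock into 100 mM acetate, histidine or phosphate buffers, pH 4.0–7.5.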

[4] = cAMP induction in COS7 cells expressing hCTR2, average of a minimum of 3 determinations, read-out: hCTR2 EC50
[5] = cAMP induction in COS7 cells expressing hAMYR3, average of a minimum of 3 determinations, read-out: hAMY R3 EC50

| EC50 [1, 4] [nM] | EC50 [2, 5] [nM] | Compound | Solubility, Acetate buffer pH 4 [3] | Solubility, Acetate buffer pH 5 [3] | Solubility, Histidine buffer pH 6 [3] | Solubility, Histidine buffer pH 7 [3] | Solubility, Phosphate buffer pH 6 [3] | Solubility, Phosphate buffer pH 7 [3] | Solubility, Phosphate buffer pH 7.5 [3] | EC50 [1] [nM] | EC50 [2] [nM] |
| --- | --- | --- | --- | --- | --- | --- | --- | --- | --- | --- | --- |
| 0.32 | 0.67 | CC[C@H](C)[C@@H](C(=O)N[C@@H](CC(C)C)C(=O)N[C@@H](CO)C(=O)N[C@@H](CO)C(=O)N[C@H](C(=O)N[C@@H](CC(N)=O)C(=O)N[C@H](C(=O)NCC(=O)N[C@@H](CO)C(=O)N[C@@H](CC(N)=O)C(=O)N[C@H](C(=O)N1CC[C@H]1C(N)=O)[C@@H](C)O)C(C)C)[C@@H](C)O)N(C)C(=O)CN(C)C(=O)[C@H](Cc1ccccc1)NC(=O)[C@H](CC(N)=O)NC(=O)[C@H](CC(N)=O)NC(=O)[C@H](CO)NC(=O)[C@H](CO)NC(=O)[C@H](CCCNC(=N)N)NC(=O)[C@H](Cc1c[nH]cn1)NC(=O)[C@H](CC(C)C)NC(=O)[C@H](Cc1ccccc1)NC(=O)[C@H](CCC(=O)O)NC(=O)[C@H](C)NC(=O)[C@H](CC(C)C)NC(=O)[C@H](CCCNC(=N)N)NC(=O)[C@H](CCC(N)=O)NC(=O)[C@@H](NC(=O)[C@H](C)NC(=O)[C@@H]1CSSC[C@H](NC(=O)[C@H](CCCNC(=N)N)NC(=O)CC[C@H](NC(=O)CCCCCCCCCCCCCCCCCCC(=O)O)C(=O)O)C(=O)N[C@@H](CC(N)=O)C(=O)N[C@@H]([C@@H](C)O)C(=O)N[C@@H](C)C(=O)N[C@@H]([C@@H](C)O)C(=O)N1)[C@@H](C)O [Compound 108, [19CD]-isoGlu-RC()NTATC()ATQRLAEFLHRSSNNF-Gly(Me)-Ile(Me)-LSSTNVGSNT-Aze-NH2] ({C20 diacid-γGlu}-RCNTATCATQRLAEFLHRSSNNF[Sar][NMeI]LSSTNVGSNT[Aze]-NH2; disulfide 2-7) | SS (SS indicates solubility ≥ 1mg/ml) | SS (SS indicates solubility ≥ 1mg/ml) | SS (SS indicates solubility ≥ 1mg/ml) | SS (SS indicates solubility ≥ 1mg/ml) | SS (SS indicates solubility ≥ 1mg/ml) | SS (SS indicates solubility ≥ 1mg/ml) | SS (SS indicates solubility ≥ 1mg/ml) | – | – |
| – | – | CC[C@H](C)[C@@H](C(=O)N[C@@H](CC(C)C)C(=O)N[C@@H](CO)C(=O)N[C@@H](CO)C(=O)N[C@H](C(=O)N[C@@H](CC(N)=O)C(=O)N[C@H](C(=O)NCC(=O)N[C@@H](CO)C(=O)N[C@@H](CC(N)=O)C(=O)N[C@H](C(=O)N1CCCC[C@H]1C(N)=O)[C@@H](C)O)C(C)C)[C@@H](C)O)N(C)C(=O)[C@H](C)NC(=O)CN(C)C(=O)[C@H](Cc1ccccc1)NC(=O)[C@H](CC(N)=O)NC(=O)[C@H](CC(N)=O)NC(=O)[C@H](CO)NC(=O)[C@H](CO)NC(=O)[C@H](CCCNC(=N)N)NC(=O)[C@H](Cc1c[nH]cn1)NC(=O)[C@H](CC(C)C)NC(=O)[C@H](Cc1ccccc1)NC(=O)[C@H](CCC(=O)O)NC(=O)[C@H](C)NC(=O)[C@H](CC(C)C)NC(=O)[C@H](CCCNC(=N)N)NC(=O)[C@H](CCC(N)=O)NC(=O)[C@@H](NC(=O)[C@H](C)NC(=O)[C@@H]1CSSC[C@H](NC(=O)[C@H](CCCNC(=N)N)NC(=O)CC[C@H](NC(=O)CCCCCCCCCCCCCCCCCCC(=O)O)C(=O)O)C(=O)N[C@@H](CC(N)=O)C(=O)N[C@@H]([C@@H](C)O)C(=O)N[C@@H](C)C(=O)N[C@@H]([C@@H](C)O)C(=O)N1)[C@@H](C)O [Compound 109, [19CD]-isoGlu-RC()NTATC()ATQRLAEFLHRSSNNF-Gly(Me)-A-Ile(Me)-LSSTNVGSNT-Pip-NH2] ({C20 diacid-γGlu}-RCNTATCATQRLAEFLHRSSNNF[Sar]A[NMeI]LSSTNVGSNT[Pip]-NH2; disulfide 2-7) | SS (SS indicates solubility ≥ 1mg/ml) | SS (SS indicates solubility ≥ 1mg/ml) | SS (SS indicates solubility ≥ 1mg/ml) | SS (SS indicates solubility ≥ 1mg/ml) | II (II indicates solubility ≤ 1 mg/ml) | SS (SS indicates solubility ≥ 1mg/ml) | SS (SS indicates solubility ≥ 1mg/ml) | 0.3 | 0.52 |
| 0.14 | 0.21 | CC[C@H](C)[C@@H](C(=O)N[C@@H](CC(C)C)C(=O)N[C@@H](CO)C(=O)N[C@@H](CO)C(=O)N[C@H](C(=O)N[C@@H](CC(N)=O)C(=O)N[C@H](C(=O)NCC(=O)N[C@@H](CO)C(=O)N[C@@H](CC(N)=O)C(=O)N[C@H](C(=O)N1C[C@H](N)C[C@H]1C(N)=O)[C@@H](C)O)C(C)C)[C@@H](C)O)N(C)C(=O)CN(C)C(=O)[C@H](Cc1ccccc1)NC(=O)[C@H](CC(N)=O)NC(=O)[C@H](CC(N)=O)NC(=O)[C@H](CO)NC(=O)[C@H](CO)NC(=O)[C@H](CCCNC(=N)N)NC(=O)[C@H](Cc1c[nH]cn1)NC(=O)[C@H](CC(C)C)NC(=O)[C@H](Cc1ccccc1)NC(=O)[C@H](CCC(=O)O)NC(=O)[C@H](C)NC(=O)[C@H](CC(C)C)NC(=O)[C@H](CCCNC(=N)N)NC(=O)[C@H](CCC(N)=O)NC(=O)[C@@H](NC(=O)[C@H](C)NC(=O)[C@@H]1CSSC[C@H](NC(=O)[C@H](CCCNC(=N)N)NC(=O)CC[C@H](NC(=O)CCCCCCCCCCCCCCCCCCC(=O)O)C(=O)O)C(=O)N[C@@H](CC(N)=O)C(=O)N[C@@H]([C@@H](C)O)C(=O)N[C@@H](C)C(=O)N[C@@H]([C@@H](C)O)C(=O)N1)[C@@H](C)O [Compound 111, [19CD]-isoGlu-RC()NTATC()ATQRLAEFLHRSSNNF-Gly(Me)-Ile(Me)-LSSTNVGSNT-Apr-NH2] ({C20 diacid-γGlu}-RCNTATCATQRLAEFLHRSSNNF[Sar][NMeI]LSSTNVGSNT[Pro(4R-NH2)]-NH2; disulfide 2-7) | SS (SS indicates solubility ≥ 1mg/ml) | SS (SS indicates solubility ≥ 1mg/ml) | SS (SS indicates solubility ≥ 1mg/ml) | SS (SS indicates solubility ≥ 1mg/ml) | SS (SS indicates solubility ≥ 1mg/ml) | SS (SS indicates solubility ≥ 1mg/ml) | SS (SS indicates solubility ≥ 1mg/ml) | – | – |
| – | – | CC[C@H](C)[C@@H](C(=O)N[C@@H](CC(C)C)C(=O)N[C@@H](CO)C(=O)N[C@@H](CO)C(=O)N[C@H](C(=O)N[C@@H](CC(N)=O)C(=O)N[C@H](C(=O)NCC(=O)N[C@@H](CO)C(=O)N[C@@H](CC(N)=O)C(=O)N[C@H](C(=O)N1C[C@H](c2ccccc2)C[C@H]1C(N)=O)[C@@H](C)O)C(C)C)[C@@H](C)O)N(C)C(=O)[C@H](C)NC(=O)CN(C)C(=O)[C@H](Cc1ccccc1)NC(=O)[C@H](CC(N)=O)NC(=O)[C@H](CC(N)=O)NC(=O)[C@H](CO)NC(=O)[C@H](CO)NC(=O)[C@H](CCCNC(=N)N)NC(=O)[C@H](Cc1c[nH]cn1)NC(=O)[C@H](CC(C)C)NC(=O)[C@H](Cc1ccccc1)NC(=O)[C@H](CCC(=O)O)NC(=O)[C@H](C)NC(=O)[C@H](CC(C)C)NC(=O)[C@H](CCCNC(=N)N)NC(=O)[C@H](CCC(N)=O)NC(=O)[C@@H](NC(=O)[C@H](C)NC(=O)[C@@H]1CSSC[C@H](NC(=O)[C@H](CCCNC(=N)N)NC(=O)CC[C@H](NC(=O)CCCCCCCCCCCCCCCCCCC(=O)O)C(=O)O)C(=O)N[C@@H](CC(N)=O)C(=O)N[C@@H]([C@@H](C)O)C(=O)N[C@@H](C)C(=O)N[C@@H]([C@@H](C)O)C(=O)N1)[C@@H](C)O [Compound 112, [19CD]-isoGlu-RC()NTATC()ATQRLAEFLHRSSNNF-Gly(Me)-A-Ile(Me)-LSSTNVGSNT-Php-NH2] ({C20 diacid-γGlu}-RCNTATCATQRLAEFLHRSSNNF[Sar]A[NMeI]LSSTNVGSNT[Pro(trans-4-Ph)]-NH2; disulfide 2-7) | SS (SS indicates solubility ≥ 1mg/ml) | SS (SS indicates solubility ≥ 1mg/ml) | SS (SS indicates solubility ≥ 1mg/ml) | II (II indicates solubility ≤ 1 mg/ml) | II (II indicates solubility ≤ 1 mg/ml) | SS (SS indicates solubility ≥ 1mg/ml) | II (II indicates solubility ≤ 1 mg/ml) | 0.16 | 0.15 |
